Assay results as given in ChEMBL document CHEMBL3243992, “Synthesis and carcinogenic activity of 5-fluoro-7-(oxygenated methyl)-12-methylvenz[a]anthracenes” (J Med Chem, 1978).

Assays:
Rattus norvegicus [1] = assay: Carcinogenic activity in Sprague-Dawley rat assessed as tumor induction time at 0.1 umol, sc three times a week for 30 days; type: ADME, organism-based; conditions: in vivo, 720 h
Rattus norvegicus [2] = assay: Carcinogenic activity in Sprague-Dawley rat assessed as tumor formation at 0.1 umol, sc three times a week for 30 days observed up to 270 days; type: ADME, organism-based; conditions: in vivo

Row | SMILES | Time (Rattus norvegicus [1]) | Activity (Rattus norvegicus [2])
1 | Cc1c2ccccc2c(C)c2c1cc(F)c1ccccc12 | 231 days | 
2 | CC(=O)OCc1c2ccccc2c(C)c2c1cc(F)c1ccccc12 | 205.7 days | 
3 | Cc1c2ccccc2c(CO)c2cc(F)c3ccccc3c12 |  | Non-toxic
